Publication PMC11243693, “Synthesis and Biological Evaluation of New Compounds with Nitroimidazole Moiety” (Molecules, 2024)
In brackets after ≈: the same amount, converted by molar mass.

Legend:
Gram-positive bacteria = experiment: Broth microdilution, Gram-positive bacteria; type: cell-based; settings: strains as named in the sentence
Description: The antibacterial activity of the obtained thiosemicarbazides and hydrazide–hydrazones was determined by evaluating their ability to inhibit microbial growth in vitro using the broth microdilution method, according to the guidelines of the European Committee on Antimicrobial Susceptibility Testing (EUCAST). The method involved the preparation of microbial suspensions with a standardized density of 0.5 on the McFarland scale (equivalent to 1.5 × 10^8 colony-forming units/mL for bacteria and […] for fungi). A solution of the test substances was then prepared (initial concentration 1000 µg/mL, diluted in sterile Mueller-Hinton broth for bacteria or Mueller-Hinton with 2% glucose for fungi). The test was carried out in 96-well polystyrene flat-bottom plates (Medlab, Poland) with 100 µL of appropriate sterile microbiological medium in each well. […] After incubation, the spectrophotometric absorbance at 570 nm in each well of the plate was read. […] The MBC value was determined by adding 5 µL of the contents of each well of the plate to solid sterile MHA or MHA + 2%glc medium for bacteria and fungi, respectively. […] In addition, the quotient MBC(MFC)/MIC could be determined to assess the nature of the activity of the test substance. […]

[1] = tested on: Staphylococcus aureus ATCC 43300 methicillin-resistant MRSA; experiment: Broth microdilution, S. aureus ATCC 43300 MRSA; type: cell-based
How it was run: (§1)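 MIC: A570 after 18 ± 2 h, 35 ± 2 °C. Medium: MH broth (bacterium) or MH + 2% glucose (yeasts). Serial 2-fold dilutions of compound, top solution 1000 µg/mL. Inoculum: 0.5 McFarland suspension diluted 10×. MBC/MFC: subculture onto MHA or MHA + 2% glc, 99.9% growth inhibition.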

[2] = tested on: Staphylococcus aureus ATCC 6538; experiment: Broth microdilution, S. aureus ATCC 6538; type: cell-based
How it was run: (§2)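 EUCAST broth microdilution: inoculum 0.5 McFarland, 10-fold diluted; Mueller-Hinton broth (bacteria) or MH + 2% glucose (yeast); twofold dilutions from 1000 µg/mL; 18 ± 2 h at 35 ± 2 °C, A570 read for MIC. MBC/MFC from subculture on MHA or MHA + 2% glc (99.9% kill).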

[3] = tested on: Candida glabrata ATCC 15126; experiment: Broth microdilution, C. glabrata ATCC 15126; type: cell-based
How it was run: as §2

[4] = tested on: Staphylococcus epidermidis ATCC 12228; experiment: Broth microdilution, S. epidermidis ATCC 12228; type: cell-based
How it was run: as §1

[5] = tested on: Candida glabrata ATCC 90030; experiment: Broth microdilution, C. glabrata ATCC 90030; type: cell-based
How it was run: as §2

[6] = tested on: Candida krusei ATCC 14243; experiment: Broth microdilution, C. krusei ATCC 14243; type: cell-based
How it was run: as §2

[7] = tested on: Micrococcus luteus ATCC 10240; experiment: Broth microdilution, M. luteus ATCC 10240; type: cell-based; settings: for MBC/MIC Ratio: <4 bactericidal, ≥4 bacteriostatic
How it was run: as §1

[8] = tested on: Bacillus cereus ATCC 10876; experiment: Broth microdilution, B. cereus ATCC 10876; type: cell-based; settings: for MBC/MIC Ratio: <4 bactericidal, ≥4 bacteriostatic
How it was run: as §2

[9] = tested on: Candida parapsilosis ATCC 22019; experiment: Broth microdilution, C. parapsilosis ATCC 22019; type: cell-based
How it was run: as §2

[10] = tested on: Candida lusitaniae ATCC 3449; experiment: Broth microdilution, C. lusitaniae ATCC 3449; type: cell-based
How it was run: as §2

[11] = tested on: Bacillus subtilis ATCC 6633; experiment: Broth microdilution, B. subtilis ATCC 6633; type: cell-based; settings: for MBC/MIC Ratio: <4 bactericidal, ≥4 bacteriostatic
How it was run: as §1

[12] = tested on: Candida tropicalis ATCC 1369; experiment: Broth microdilution, C. tropicalis ATCC 1369; type: cell-based
How it was run: as §2

Candida auris CDC B11903 = experiment: Broth microdilution, C. auris CDC B11903; type: cell-based
How it was run: as §2

Candida spp. = experiment: Broth microdilution, Candida spp.; type: cell-based; settings: range over both strains and the listed compounds
Description: The antibacterial activity of the obtained thiosemicarbazides and hydrazide–hydrazones was determined by evaluating their ability to inhibit microbial growth in vitro using the broth microdilution method, according to the guidelines of the European Committee on Antimicrobial Susceptibility Testing (EUCAST). The method involved the preparation of microbial suspensions with a standardized density of 0.5 on the McFarland scale (equivalent to 1.5 × 10^8 colony-forming units/mL for bacteria and […] for fungi). A solution of the test substances was then prepared (initial concentration 1000 µg/mL, diluted in sterile Mueller-Hinton broth for bacteria or Mueller-Hinton with 2% glucose for fungi). The test was carried out in 96-well polystyrene flat-bottom plates (Medlab, Poland) with 100 µL of appropriate sterile microbiological medium in each well. The first wells were filled with 200 µL of the test substance, diluted to the initial concentration, and then double-decreasing dilutions were made under aseptic conditions using an automatic pipette. The final step was the addition of a 10-fold diluted microbial suspension of 2 µL. At the same time, the following controls were included: (a) medium control (100 µL of sterile medium without microorganisms added), (b) microbial viability control, (c) test substance control (dilutions without added micro-organisms), (d) positive control of the drug used in the clinic. The plates thus prepared were incubated for 18 ± 2 h at 35 ± 2 °C under conditions optimal for the growth of the test microorganisms. After incubation, the spectrophotometric absorbance at 570 nm in each well of the plate was read. The aim of this part of the study was to determine two parameters: the minimum inhibitory concentration (MIC) and the minimum bactericidal or fungicidal concentration (MBC/MFC) of the test compound. […] The MBC value was determined by adding 5 µL of the contents of each well of the plate to solid sterile MHA or MHA + 2%glc medium for bacteria and fungi, respectively. The area on the plate where 99.9% inhibition of microbial growth was observed indicated the lethal concentration. In addition, the quotient MBC(MFC)/MIC could be determined to assess the nature of the activity of the test substance. If MBC(MFC)/MIC was <4, the test substance was bactericidal/fungicidal, whereas if MBC(MFC)/MIC was ≥4, it was bacteriostatic/fungistatic. Amoxicillin (Glentham Life Sciences, USA) and nystatin (Glentham Life Sciences, USA) were used as the controls for this assay.
The test was performed either on bacteria, comprising: Gram-positive (Staphylococcus aureus ATCC 25923, Staphylococcus aureus ATCC 6538, Staphylococcus aureus ATCC 43300 methicillin-resistant MRSA, Staphylococcus epidermidis ATCC 12228, Micrococcus luteus ATCC 10240, Bacillus subtilis ATCC 6633, Bacillus cereus ATCC 10876) and Gram-negative (Escherichia coli ATCC 25922, Pseudomonas aeruginosa ATCC 27853, Proteus mirabilis ATCC 12453, Klebsiella pneumoniae ATCC 13883) or yeast (Candida parapsilosis ATCC 22019, Candida glabrata ATCC 90030, Candida krusei ATCC 14243, Candida glabrata ATCC 15126, Candida tropicalis ATCC 1369, Candida auris CDC B11903, Candida lusitaniae ATCC 3449) reference strains from the American Type Culture Collection (ATCC) or the Centers for Disease Control and Prevention (CDC).

[13] = tested on: Staphylococcus aureus ATCC 25923; experiment: Broth microdilution, S. aureus ATCC 25923; type: cell-based
How it was run: as §1

[14] = tested on: normal and cancer cell lines; experiment: MTT assay, normal and cancer cell lines; type: cell-based, human; settings: in words, 1 to 100 µM, 24 h
Description: Colon cancer (SW480), breast adenocarcinoma (MDA-MB-231), lung carcinoma (A-549), prostate cancer (PC3), and immortal keratinocyte (HaCaT) cell lines of human origin were acquired from the American Type Culture Collection (ATCC). The recommended culture media and protocols provided by ATCC were as follows: SW480 were cultured in Minimum Essential Medium (MEM), MDA-MB-231, A-549, and HaCaT cells were cultured in Dulbecco’s Modified Eagle Medium (DMEM), while PC3 was cultured in Roswell Park Memorial Institute Medium (RPMI). The culture media were supplemented with 10% fetal bovine serum (FBS), penicillin (100 U/mL), and streptomycin (100 μg/mL). Cells were maintained in a humidified incubator at 37 °C with 5% CO2. Passaging was carried out upon reaching 80–90% confluence using 0.25% trypsin (Gibco Life Technologies, New York, NY, USA) treatment prior to experimentation.
Cell viability was assessed utilizing the MTT assay, which relies on the conversion of 3-(4,5-dimethylthiazol-2-yl)-2,5-diphenyltetrazolium bromide salt (MTT) to formazan crystals by mitochondrial dehydrogenases in viable cells. […] The absorbance of the resulting solution was measured at 570 nm using a UVM 340 reader (ASYS Hitech GmbH, Seekirchen am Wallersee, Austria). IC50 values were determined using GraphPad software (GraphPad Prism 8 Software).

[15] = Staphylococcus epidermidis, ATCC12228
[16] = Staphylococcus aureus, ATCC25923

Cn1cc([N+](=O)[O-])nc1C(=O)NNC(=S)Nc1ccc(C(F)(F)F)cc1 [Compound 14]
MIC (range or value for several Gram-positive strains) (Gram-positive bacteria): 31.25 to 62.5 µg/mL | MBC ([1]; Sa 43300 MRSA): 500 µg/mL (≈ 1290 µM) | MIC ([1]; Sa 43300 MRSA): 62.5 µg/mL (≈ 161 µM) | MBC ([2]; Sa 6538): 1000 µg/mL (≈ 2580 µM) | MIC ([2]; Sa 6538): 62.5 µg/mL (≈ 161 µM) | MIC ([3]; Cg 15126): >1000 µg/mL | MBC ([4]; Se 12228): 500 µg/mL (≈ 1290 µM) | MIC ([4]; Se 12228): 31.25 µg/mL (≈ 80.5 µM) | MBC/MIC Ratio ([4]; Se 12228, <4 bactericidal, ≥4 bacteriostatic): 16 | MIC ([5]; Cg 90030): >1000 µg/mL | MIC ([6]; Ck 14243): >1000 µg/mL | MBC ([7]; Ml 10240): 500 µg/mL (≈ 1290 µM) | MIC ([7]; Ml 10240): 62.5 µg/mL (≈ 161 µM) | MBC/MIC Ratio ([7]; Ml 10240): 8 | MBC ([8]; Bc 10876): 250 µg/mL (≈ 644 µM) | MIC ([8]; Bc 10876): 31.25 µg/mL (≈ 80.5 µM) | MBC/MIC Ratio ([8]; Bc 10876): 8 | MIC ([9]; Cp 22019): >1000 µg/mL | MIC ([10]; Cl 3449): >1000 µg/mL | MBC ([11]; Bs 6633): 31.25 µg/mL (≈ 80.5 µM) | MIC ([11]; Bs 6633): 31.25 µg/mL (≈ 80.5 µM) | MBC/MIC Ratio ([11]; Bs 6633): 1 | MFC ([12]; Ct 1369): 500 µg/mL (≈ 1290 µM) | MIC ([12]; Ct 1369): 500 µg/mL (≈ 1290 µM) | MFC/MIC Ratio ([12]; Ct 1369, <4 fungicidal, ≥4 fungistatic): 1 | MIC (Candida auris CDC B11903; Ca B11903): >1000 µg/mL | MBC (range, C. parapsilosis ATCC 22019 and C. tropicalis ATCC 1369) (Candida spp.): 500 to 1000 µg/mL | MIC (range, C. parapsilosis ATCC 22019 and C. tropicalis ATCC 1369) (Candida spp.): 62.5 to 1000 µg/mL | MBC ([13]; Sa 25923): >1000 µg/mL | MIC ([13]; Sa 25923): 31.25 µg/mL (≈ 80.5 µM)

Cn1cc([N+](=O)[O-])nc1C(=O)NNC(=S)Nc1ccc([N+](=O)[O-])cc1 [Compound 18, 1-[(1-methyl-4-nitroimidazol-2-yl)carbonyl]-4-(4-nitrophenyl)-thiosemicarbazide]
MIC (range or value for several Gram-positive strains) (Gram-positive bacteria): 500 to 1000 µg/mL | MIC ([1]; Staphylococcus aureus): > 1000 µg/mL | MIC ([2]; Staphylococcus aureus, ATCC6538): > 1000 µg/mL | MIC ([3]; Nakaseomyces glabratus, ATCC15126): > 1000 µg/mL | MBC [4, 15]: > 1000 µg/mL | MIC [4, 15]: 1000 µg/mL (≈ 2740 µM) | MIC ([5]; Nakaseomyces glabratus, ATCC90030): > 1000 µg/mL | MIC ([6]; Pichia kudriavzevii, ATCC14243): > 1000 µg/mL | MBC ([7]; Micrococcus luteus, ATCC10240): 1000 µg/mL (≈ 2740 µM) | MIC ([7]; Micrococcus luteus, ATCC10240): 500 µg/mL (≈ 1370 µM) | MBC/MIC Ratio ([7]; Ml 10240): 2 | MBC ([8]; Bacillus cereus, ATCC10876): 1000 µg/mL (≈ 2740 µM) | MIC ([8]; Bacillus cereus, ATCC10876): 1000 µg/mL (≈ 2740 µM) | MBC/MIC Ratio ([8]; Bc 10876): 1 | MIC ([9]; Lodderomyces parapsilosis, ATCC22019): > 1000 µg/mL | MIC ([10]; Clavispora lusitaniae, ATCC3449): > 1000 µg/mL | MBC ([11]; Bacillus subtilis, ATCC6633): 1000 µg/mL (≈ 2740 µM) | MIC ([11]; Bacillus subtilis, ATCC6633): 1000 µg/mL (≈ 2740 µM) | MBC/MIC Ratio ([11]; Bs 6633): 1 | MFC ([12]; Candida tropicalis, ATCC1369): > 1000 µg/mL | MIC ([12]; Candida tropicalis, ATCC1369): 500 µg/mL (≈ 1370 µM) | MIC (Candida auris CDC B11903; Candidozyma auris, CDCB11903): > 1000 µg/mL | MBC [13, 16]: > 1000 µg/mL | MIC [13, 16]: 500 µg/mL (≈ 1370 µM)

COc1cc(C=NNC(=O)c2nc([N+](=O)[O-])cn2C)ccc1O [Compound 32, N’-[(4-hydroxy-3-methoxyphenyl)methylidene]-1-methyl-4-nitro-1H-imidazole-2-carbohydrazide]
cytotoxic potential on normal and cancer cell lines [14]: did not show cytotoxic activity | melting point: 241 to 243 °C

COc1cc(O)ccc1C=NNC(=O)c1nc([N+](=O)[O-])cn1C [Compound 33, N’-[(4-hydroxy-2-methoxyphenyl)methylidene]-1-methyl-4-nitro-1H-imidazole-2-carbohydrazide]
cytotoxic potential on normal and cancer cell lines [14]: did not show cytotoxic activity | melting point: 233 to 235 °C
